Structures are written as SMILES. Peptide text beside a SMILES is read from it.

For one test, the system named is HPVS PsV. The note with it: read-out: IC50, inhibition of uptake of HPVS PsV; PsV 1:6000 dilution, 293TT cells. The procedure:
Pseudovirus (PsV) of HPVS was prepared using method described by Buck et al, (Journal of Virology, January 2004; 751-757) and used as a model HPV in this study. The PsV stocks were prepared by co-transfecting human 293TT cells with HPVS viral plasmid p5Shell containing codon-modified papillomavirus capsid genes for L1 and L2 proteins, and pcLucF reporter plasmid containing the luciferase gene for detecting viral infection. The cell lysates containing the capsidized virus was used as the PsV stock. Optimal PsV dilution factor was determined based on the luciferase activity in 293TT cells infected with serially diluted HPVS PsV.
Data were collected on a Molecular Devices Flexstation 3 Microplate Reader using Softmax Pro v5.4.4. Data analysis was performed on Prism software using four parameter logistic model. […] Furin Inhibitor I was used as a positive control for HPVS PsV inhibition since it blocks the viral entry into host cells.
Two runs were performed for each dilution level.

For test [1], the system named is TLR7. Put plainly: imiquimod-induced cytokine responses in PBMC cultures with peptide pre-treatment. It counts as cell-based, human. As for the experimental part: (§1) Primary cell cultures were prepared in RPMI including 5% autologous plasma. Isolated PBMC cells were cultured in 96-well plates at a density of 0.5×10^6cells/well at 37° C., under humidified 5% CO2.
(§2) IL-1β, TNFα, IL-6 and IL-8 were measured simultaneously with a fixed electrochemoluminescence platform based on the sandwich ELISA principle of capture and detection antibodies, produced by MESO SCALE DISCOVERY (MSD, MESO SCALE QUICKPLEX SQ120). The applied assay was the V-PLEX PLUS pro-inflammatory cytokine panel II, including IL-1β, TNFα, IL-6 and IL-8. This assay includes manufacturer-provided control samples with indicated nominal values for comparison. These lyophilized controls, i.e. freeze-dried controls for IL-1β, TNFα, IL-6, IL-8, were prepared freshly at the time of use. QC samples were prepared from the calibrator at 3 different concentrations along the standard curve as multiple aliquots from a single batch and maintained at −20° C. Low, medium and high concentration controls were included in every multiplex assay run to control intra- and inter-assay variation. V-PLEX panels are specific for the detection of human chemokines and cytokines, and combinations have been validated by the manufacturer, to ensure no cross-reactivity.
IFNα was quantified by a sandwich ELISA based on specific capture and detection antibodies for various matrices (MABTECH), according to the manufacturer's instructions. QC samples were prepared from the calibrator at 3 different concentrations along the standard curve as multiple aliquots from a single batch and maintained at −20° C.
IFNβ was quantified by a sandwich ELISA based on specific capture and detection antibodies for various matrices (PBL ASSAY SCIENCE), according to the manufacturer's instructions. QC samples were prepared from the calibrator at 3 different concentrations along the standard curve as multiple aliquots from a single batch and maintained at −20° C. freezer.
Briefly, PBMC primary cultures were prepared from 4 healthy donors (2 males, 2 females) as described above. […] The cultures were prepared in duplicate and the readouts for pan-IFNα and IFNβ (ELISA) were measured once. Five-point concentration-response curves were constructed for the various treatment conditions in the PBMC cultures, freshly isolated from 4 subjects.

The test system of another test is HPV6 and HPV11. Put plainly: HPV viral load (qPCR) in swabs of target wart. The format is in vivo. The procedure:
(§3) The treatment period was from day 0 till day 84. During the treatment period subjects visited the clinical unit on days 0, 14, 28, 56 and 84. A fixed dose of omiganan or placebo was applied once daily. Two follow up visits were scheduled on days 126 and 168. During study execution, vital signs were measured on days 0, 14, 28, 56 and 84. Pharmacodynamic assessments were performed on day 0 (pre-dose), 14, 28, 56 and 84, respectively. Punch biopsies were performed at the screening and on days 56 and 168. Subjects were dosed 84 consecutive days with approximately 24 hours between each treatment.
HPV viral load in swabs. Swabs were taken from the target wart (or site where target wart was) at every study visit. A quantitative PCR (qPCR) of the swabs was performed for HPV6 and HPV11 to determine the viral load of the specific HPV. Swab samples were collected at day 0, 14, 28, 56, 84 (EOT), […] and 168 (EOS). In FIGS. 22A and 22B, the qPCR was expressed as copies/μL and natural log transformed. In FIGS. 23A and 23B, the qPCR was expressed as copies/μL, natural log transformed and also corrected for the amount of DNA in the sample.
In general terms: In qPCR the cycle at which signal appears reflects the starting amount.

Another test deals with IL-1β, IL-8. Put plainly: Biomarkers (qPCR) in wart biopsies. It counts as in vivo, human. The note with it: during the study period. As for the experimental part: as §3
Biomarkers in biopsy. Biopsies were taken from biopsy wart 1 at screening, biopsy wart 2 at EOT and target wart at EOS. Biopsies were only taken when the warts were still visible.

The test system of test [2] is TLR7. Nature of the test: Ongoing inflammation in PBMC cultures: imiquimod 3 hrs followed by omiganan 21 hrs. The format is cell-based, human. As for the experimental part: as §1, §2
Briefly, PBMC primary cultures were prepared from 4 donors. […] The readouts for the following cytokine and chemokine release were measured: IL-1β, IL-2, IL-4, IL-6, IL-8 HA, IL-8, IL-12p70, IL-13, IFN-γ, and TNF-α were measured. The cultures were prepared in duplicate.

The subject of another test is TLR9. Nature of the test: TLR9-mediated interferon responses in PBMC cultures (IFN-α ELISA). The format is cell-based, human. As for the experimental part:
CpG motifs are present in a variety of DNA viruses and CpG signaling is relevant to host defense against viral infections. Briefly, PBMC primary cultures were prepared from 2 donors. […] E. coli ssDNA (5 μg/mL) or PBS (unstimulated). The readouts for IFN-α in cell supernatant were measured by ELISA.

The test system of test [3] is TC-1 tumor. Put plainly: Tumor outgrowth and flow cytometry after intratumoral injections in TC-1 mice. It counts as in vivo. The procedure: Tumor growth was measured at days 9, 10, 12, 14, and 16.
Tumor growth was measured at day 9 (one day before injection), 10, 12, 14 and day 16 (at sacrifice).
On the technique in general: A flow cytometer gives signals particle by particle.

Test [4] relates to TC-1 tumor. Put plainly: Tumor outgrowth in TC-1 mice in presence or absence of anti-neutrophil antibody aLy6G. It counts as in vivo. The procedure:
10, 12, and 14. Tumor growth was measured at days 11, 13, 15, 17, 20, and 22.

Setting [5] is: 5 or 25 μg/mL peptide, 30 min pre-treatment, 24 hrs.
Setting [6] is: right-shift of imiquimod concentration response curves.
Where [7] appears, read: omiganan 25, 12.5, 6.25 μg/mL added after 3 hour imiquimod.
Where [8] appears, read: omiganan added after 3 hour imiquimod, effect less obvious.
The mark [9] stands for this setting: 6.25 or 25 μg/mL omiganan 30min pre-incubation, 24hr.

Take `CC[C@H](C)[C@H](N)C(=O)N[C@@H](CC(C)C)C(=O)N[C@@H](CCCNC(=N)N)C(=O)N[C@@H](Cc1c[nH]c2ccccc12)C(=O)N1CCC[C@H]1C(=O)N[C@@H](Cc1c[nH]c2ccccc12)C(=O)N[C@@H](Cc1c[nH]c2ccccc12)C(=O)N1CCC[C@H]1C(=O)N[C@@H](Cc1c[nH]c2ccccc12)C(=O)N[C@@H](CCCNC(=N)N)C(=O)N[C@@H](CCCNC(=N)N)C(=O)N[C@@H](CCCCN)C(N)=O` [omiganan, I L R W P W W P W R R K] (H-ILRWPWWPWRRK-NH2): in the test on HPVS PsV, the half-maximal inhibitory concentration (IC50) lay within 23.5 to 29.1 µM. In the test with TLR7 [1] (setting [5]), the “IL-6 responses to imiquimod (TLR7)” value is on record as “inhibited” and the “TNFα responses to imiquimod (TLR7)” value is on record as “inhibited”. Moreover, the “interferon responses in the presence of imiquimod” value in the test on TLR7 [1] (5 or 25 μg/mL peptide, 30 min pre-treatment, 24 hrs, PBMC of 4 donors) was “induced strong interferon responses”. In the test on TLR7 [1] (setting [6]), the “IL-1(3 responses to imiquimod (TLR7))” value is on record as “inhibited” and the “IL-8 responses to imiquimod (TLR7)” value was “inhibited”. In addition, the “viral load of HPV6 in swabs” value in the test with HPV6 and HPV11 (during omiganan treatment) is “strong trend toward reduction”. For the same compound, the “HPV6 and HPV11 viral load compared to placebo” value with HPV6 and HPV11 (swabs, qPCR, at EOT, p=0.0201) is recorded as “statistical significant decrease”. Besides, in the test with IL-1β, IL-8, the “amount of IL-1β in biopsies” value is recorded as “increased” and the “amount of IL-8 in biopsies” value was “increased”. Also, in the test on TLR7 [2] (setting [7]), the IL-1β response result is on record as “did not significantly modify” and the IL-8 response entry was “significantly enhanced”. For the same compound, in the test with TLR7 [2] (setting [8]), the IL-6 response result was “enhanced” and the TNF-α response entry is recorded as “enhanced”. Moreover, in the test with TLR9 (setting [9]), the “CpG-A IFN-α responses” value is “strongly enhanced”, the “CpG-B IFN-α responses” value was “did so strongly” and the “CpG-C IFN-α responses” value is “concentration-dependently enhanced”. In addition, the “ssDNA-driven IFN-α responses” value in the test with TLR9 (omiganan pre-incubation, E. coli ssDNA 5 μg/mL) is “initial inhibition of cytokine release at low omiganan concentrations, and an enhancement of cytokine release at higher omiganan concentrations”. For the same compound, the “tumor outgrowth compared to PBS-treated mice” value with TC-1 tumor [3] (30 nmol intratumoral on days 10, 12, 14) is recorded as “reduction in tumor outgrowth”. In the test on TC-1 tumor [3] (flow cytometry after three intratumoral injections), the “CD11c expression of Ly6C-low macrophages in TC-1 tumors (macrophage phenotype)” value is “lower CD11c expression”. Further, the “tumor outgrowth compared to PBS-treated mice” value in the test with TC-1 tumor [4] (intratumoral on days 9, 11, 14, 16, 18, without aLy6G) is listed as “reduction in tumor outgrowth”. For the same compound, the “reduction in tumor outgrowth” value in the test with TC-1 tumor [4] (omiganan treated group also treated with aLy6G) is on record as “not observed”.

As a reminder, the IC50 is the concentration that inhibits the measured activity by half.
